Like-named read-outs stand apart in the source and are kept apart here.
Molecular target: Ba/F3 V617F cells (Homo sapiens, UniProt O60674, V617F, cells depend on it)
Assay: Proliferation assay (Cell Titer-Glo, 72 h) utilizing Ba/F3 V617F cells
Type: cell-based, mouse
Protocol: Ba/F3 V617F cells are maintained and plated in RPMI with 10% FBS. Plating density for these cells is 1×10^5 cells/mL.
The cells were resuspended in a corresponding medium at a required cell density (see above). 100μ of cell suspension was added to each well of a flat bottom 96 well white plate. The compound was serially diluted in DMSO from 5 mM in 3-fold dilutions, and then diluted 1:250 in the RPMI 1640 medium containing 5% FBS and pen/strep. 100 μL of resulting 2× compound solution was added per well in duplicate and the cells were allowed to proliferate for 72 hours at 37° C.
Proliferation was measured using Cell Titer-Glo. The substrate was thawed and allowed to come to ambient temperature. After removal of top 100 μL of medium from each well, 100 μL of the premixed Cell Titer-Glo reagent was added to each well. The plates were mixed on an orbital shaker for three minutes to induce lysis and incubated at ambient temperature for an additional five minutes to allow the signal to equilibrate. The Luminescence was read on the Wallac Plate Reader.
The results of the ability of the compounds of the invention to inhibit JAK2 activity, when tested in the above assay utilizing Ba/F3 V617F cells, are shown in the following Tables 2-3 wherein the level of activity (i.e., the IC50) for each compound is indicated in Tables 2-3. The compound numbers in Tables 2-3 refers to the compounds disclosed herein as being prepared by the methods disclosed herein: […]

[1] = Ba/F3 V617F cells, proliferation, level of activity to inhibit JAK2, read-out: IC50 (the source's name)

Sequence of Ba/F3 V617F cells (O60674 whole entry V617F): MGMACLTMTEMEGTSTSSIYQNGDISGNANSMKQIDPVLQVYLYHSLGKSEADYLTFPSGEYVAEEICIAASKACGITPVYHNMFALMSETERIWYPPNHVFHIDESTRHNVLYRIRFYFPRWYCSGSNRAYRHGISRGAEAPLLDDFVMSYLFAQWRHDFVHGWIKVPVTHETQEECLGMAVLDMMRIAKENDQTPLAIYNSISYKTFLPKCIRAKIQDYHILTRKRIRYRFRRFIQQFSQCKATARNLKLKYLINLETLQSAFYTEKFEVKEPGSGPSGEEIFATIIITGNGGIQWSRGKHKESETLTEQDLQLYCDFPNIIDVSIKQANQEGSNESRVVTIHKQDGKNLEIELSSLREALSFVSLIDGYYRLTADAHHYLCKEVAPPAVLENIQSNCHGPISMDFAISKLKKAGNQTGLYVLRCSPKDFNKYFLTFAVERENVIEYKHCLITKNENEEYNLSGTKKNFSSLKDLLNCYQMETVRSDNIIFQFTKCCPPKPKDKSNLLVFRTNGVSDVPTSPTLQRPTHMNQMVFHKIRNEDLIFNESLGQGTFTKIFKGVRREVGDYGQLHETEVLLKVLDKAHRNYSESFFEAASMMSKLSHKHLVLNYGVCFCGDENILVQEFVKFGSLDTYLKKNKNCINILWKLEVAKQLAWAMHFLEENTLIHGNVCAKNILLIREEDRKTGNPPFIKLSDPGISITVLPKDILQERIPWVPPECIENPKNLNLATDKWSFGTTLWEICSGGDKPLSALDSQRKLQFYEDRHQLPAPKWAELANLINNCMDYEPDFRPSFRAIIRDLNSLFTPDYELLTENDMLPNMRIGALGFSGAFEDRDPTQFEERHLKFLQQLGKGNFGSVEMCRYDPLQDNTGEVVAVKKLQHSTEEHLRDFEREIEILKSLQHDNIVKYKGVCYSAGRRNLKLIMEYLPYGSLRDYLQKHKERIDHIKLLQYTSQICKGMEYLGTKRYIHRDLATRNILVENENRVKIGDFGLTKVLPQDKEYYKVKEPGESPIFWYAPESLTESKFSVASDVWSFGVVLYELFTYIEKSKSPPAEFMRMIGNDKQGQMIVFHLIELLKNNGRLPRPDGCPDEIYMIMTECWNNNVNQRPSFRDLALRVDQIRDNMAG

CCN1C[C@@H]2C[C@H]1CN2c1ccc(Nc2nccc(-c3cnc4c(c3)OC(C)(C)C(=O)N4)n2)cc1C [compound 30, 4-(2,2-dimethyl-3-oxo-3,4-dihydro-2H-pyrido[3,2-b][1,4]oxazin-7-yl)-N-(3-methyl-4-((1S,4S)-5-ethyl-2,5-diazabicyclo[2.2.1]heptan-2-yl)phenyl)pyrimidin-2-amine]
GI50 [1]: < 1 µM

Cc1cc(Nc2nccc(-c3cnc4c(c3)OC3(CCC3)C(=O)N4)n2)ccc1N1C[C@@H]2C[C@H]1CN2C [compound 31, 4-(3′-oxo-3,4′-dihydrospiro[cyclobutane-1,2′-pyrido[3,2-b][1,4]oxazine]-7-yl)-N-(3-methyl-4-((1S,4S)-5-methyl-2,5-diazabicyclo[2.2.1]heptan-2-yl)phenyl)pyrimidin-2-amine]
GI50 [1]: < 1 µM

CCN1C[C@@H]2C[C@H]1CN2c1ccc(Nc2nccc(-c3cnc4c(c3)OC3(CCC3)C(=O)N4)n2)cc1C [compound 32, 4-(3′-oxo-3′,4′-dihydrospiro[cyclobutane-1,2′-pyrido[3,2-b][1,4]oxazine]-7′-yl)-N-(3-methyl-4-((1S,4S)-5-ethyl-2,5-diazabicyclo[2.2.1]heptan-2-yl)phenyl)pyrimidin-2-amine]
GI50 [1]: < 1 µM

Cc1cc(Nc2nccc(-c3cnc4[nH]ccc4c3)n2)ccc1N1C[C@@H]2C[C@H]1CO2 [compound 33, 4-(1H-pyrrolo[2,3-b]pyridin-5-yl)-N-(3-methyl-4-((1S,4S)-5-oxa-2-azabicyclo[2.2.1]heptan-2-yl)phenyl)pyrimidin-2-amine]
GI50 [1]: < 1 µM

Cc1cc(Nc2nccc(-c3cnc4[nH]ccc4c3)n2)ccc1N1C[C@@H]2C[C@H]1CN2CC(F)(F)F [compound 34, 4-(1H-pyrrolo[2,3-b]pyridin-5-yl)-N-(3-methyl-4-((1S,4S)-5-(2,2,2-trifluoroethyl)-2,5-diazabicyclo[2.2.1]heptan-2-yl)phenyl)pyrimidin-2-amine]
GI50 [1]: < 1 µM

Cc1cc(Nc2nccc(-c3cnc4[nH]ccc4c3)n2)ccc1N1C[C@@H]2C[C@H]1CN2CC1CC1 [compound 35, 4-(1H-pyrrolo[2,3-b]pyridin-5-yl)-N-(3-methyl-4-((1S,4S)-5-(cyclopropyl)methyl-2,5-diazabicyclo[2.2.1]heptan-2-yl)phenyl)pyrimidin-2-amine]
GI50 [1]: < 1 µM

Cc1cc(Nc2nccc(-c3ccc(N4CCOCC4)nc3)n2)ccc1N1C[C@@H]2C[C@H]1CN2CC(F)(F)F [compound 36, 4-(6-(morpholin-4-yl)pyridin-3-yl)-N-(3-methyl-4-((1S,4S)-5-(2,2,2-trifluoroethyl)-2,5-diazabicyclo[2.2.1]heptan-2-yl)phenyl)pyrimidin-2-amine]
GI50 [1]: 1 to 10 µM

Cc1cc(Nc2nccc(-c3ccc(N4CCOCC4)nc3)n2)ccc1N1C[C@@H]2C[C@H]1CN2CC1CC1 [compound 37, 4-(6-(morpholin-4-yl)pyridin-3-yl)-N-(3-methyl-4-((1S,4S)-5-(cyclopropyl)methyl-2,5-diazabicyclo[2.2.1]heptan-2-yl)phenyl)pyrimidin-2-amine]
GI50 [1]: < 1 µM

Cc1cc(Nc2nccc(-c3cnc4c(c3)OC(C)(C)C(=O)N4)n2)ccc1N1C[C@@H]2C[C@H]1CN2S(N)(=O)=O [compound 38, 4-(2,2-dimethyl-3-oxo-3,4-dihydro-2H-pyrido[3,2-b][1,4]oxazin-7-yl)-N-(3-methyl-4-((1S,4S)-5-(aminosulfonyl)-2,5-diazabicyclo[2.2.1]heptan-2-yl)phenyl)pyrimidin-2-amine]
GI50 [1]: < 1 µM

CN1C[C@@H]2C[C@H]1CN2c1ccc(Nc2nccc(-c3ccnc(N4CCOCC4)c3F)n2)cc1F [compound 39, 4-(3-fluoro-2-(morpholin-4-yl)pyridin-4-yl)-N-(3-fluoro-4-((1S,4S)-5-methyl-2,5-diazabicyclo[2.2.1]heptan-2-yl)phenyl)pyrimidin-2-amine]
GI50 [1]: 1 to 10 µM

CN1C[C@@H]2C[C@H]1CN2c1ccc(Nc2nccc(-c3cnc(N4CCOCC4)nc3)n2)cc1 [compound 40, 4-(2-(morpholin-4-yl)pyrimidin-5-yl)-N-(4-((1S,4S)-5-methyl-2,5-diazabicyclo[2.2.1]heptan-2-yl)phenyl)pyrimidin-2-amine]
GI50 [1]: 1 to 10 µM

Cc1cc(Nc2nccc(-c3cnc(N4CCOCC4)nc3)n2)ccc1N1C[C@@H]2C[C@H]1CN2C [compound 41, 4-(2-(morpholin-4-yl)pyrimidin-5-yl)-N-(3-methyl-4-((1S,4S)-5-methyl-2,5-diazabicyclo[2.2.1]heptan-2-yl)phenyl)pyrimidin-2-amine]
GI50 [1]: < 1 µM

Cc1cc(Nc2nccc(-c3cnc(N4CCOCC4)nc3)n2)ccc1N1C[C@@H]2C[C@H]1CO2 [compound 42, 4-(2-(morpholin-4-yl)pyrimidin-5-yl)-N-(3-methyl-4-((1S,4S)-5-oxa-2-azabicyclo[2.2.1]heptan-2-yl)phenyl)pyrimidin-2-amine]
GI50 [1]: 1 to 10 µM

CN1C[C@@H]2C[C@H]1CN2c1ccc(Nc2nccc(-c3cnc(N4CCOCC4)nc3)n2)cc1F [compound 43, 4-(2-(morpholin-4-yl)pyrimidin-5-yl)-N-(3-fluoro-4-((1S,4S)-5-methyl-2,5-diazabicyclo[2.2.1]heptan-2-yl)phenyl)pyrimidin-2-amine]
GI50 [1]: < 1 µM

Cc1cc(Nc2nccc(-c3cnc(NC(=O)C4CC4)nc3)n2)ccc1N1C[C@@H]2C[C@H]1CN2C [compound 44, 4-(2-((cyclopropyl)carbonylamino)-pyrimidin-5-yl)-N-(3-methyl-4-((1S,4S)-5-methyl-2,5-diazabicyclo[2.2.1]heptan-2-yl)phenyl)pyrimidin-2-amine]
GI50 [1]: < 1 µM

Cc1cc(Nc2nccc(-c3ccc(C(=O)NC4=NCCS4)cc3)n2)ccc1N1C[C@@H]2C[C@H]1CN2C [compound 45, 4-(4-(4,5-dihydrothiazol-2-ylcarbamoyl)phenyl)-N-(3-methyl-4-((1S,4S)-5-methyl-2,5-diazabicyclo[2.2.1]heptan-2-yl)phenyl)pyrimidin-2-amine]
GI50 [1]: 1 to 10 µM

Cc1cc(Nc2nccc(-c3ccc(C(C)(C)C)cc3)n2)ccc1N1C[C@@H]2C[C@H]1CN2C [compound 46, 4-(4-(1,1-dimethylethyl)phenyl)-N-(3-methyl-4-((1S,4S)-5-methyl-2,5-diazabicyclo[2.2.1]heptan-2-yl)phenyl)pyrimidin-2-amine]
GI50 [1]: < 1 µM

CN1C[C@@H]2C[C@H]1CN2c1ccc(Nc2nccc(-c3ccc(N4CCOCC4)cc3)n2)cc1F [compound 47, 4-(4-(morpholin-4-yl)phenyl)-N-(3-fluoro-4-((1S,4S)-5-methyl-2,5-diazabicyclo[2.2.1]heptan-2-yl)phenyl)pyrimidin-2-amine]
GI50 [1]: 1 to 10 µM

CNC(=O)Cc1ccc(-c2ccnc(Nc3ccc(N4C[C@@H]5C[C@H]4CN5C)c(C)c3)n2)cc1 [compound 48, 4-(4-((methyl)aminocarbonylmethyl)-phenyl)-N-(3-methyl-4-((1S,4S)-5-methyl-2,5-diazabicyclo[2.2.1]heptan-2-yl)phenyl)pyrimidin-2-amine]
GI50 [1]: 1 to 10 µM

Cc1cc(Nc2nccc(-c3ccc(CC(=O)NC4CC4)cc3)n2)ccc1N1C[C@@H]2C[C@H]1CN2C [compound 49, 4-(4-((cyclopropyl)aminocarbonyl-methyl)phenyl)-N-(3-methyl-4-((1S,4S)-5-methyl-2,5-diazabicyclo[2.2.1]heptan-2-yl)phenyl)pyrimidin-2-amine]
GI50 [1]: 1 to 10 µM

CNC(=O)c1ccc(-c2ccnc(Nc3ccc(N4C[C@@H]5C[C@H]4CN5C)c(C)c3)n2)cn1 [compound 50, 4-(6-(methylaminocarbonyl)pyridin-3-yl)-N-(3-methyl-4-((1S,4S)-5-methyl-2,5-diazabicyclo[2.2.1]heptan-2-yl)phenyl)pyrimidin-2-amine]
GI50 [1]: < 1 µM

Cc1cc(Nc2nccc(-c3cnc4c(c3)CCC(=O)N4)n2)ccc1N1C[C@@H]2C[C@H]1CN2C [compound 51, 4-(7-oxo-5,6,7,8-tetrahydro-1,8-naphthyridin-3-yl)-N-(3-methyl-4-((1S,4S)-5-methyl-2,5-diazabicyclo[2.2.1]heptan-2-yl)phenyl)pyrimidin-2-amine]
GI50 [1]: < 1 µM

Cc1cc(Nc2nccc(-c3cncc(C(=O)N4CCOCC4)c3)n2)ccc1N1C[C@@H]2C[C@H]1CN2C [compound 52, 4-(5-((morpholin-4-yl)carbonyl)pyridin-3-yl)-N-(3-methyl-4-((1S,4S)-5-methyl-2,5-diazabicyclo[2.2.1]heptan-2-yl)phenyl)pyrimidin-2-amine]
GI50 [1]: < 1 µM

CN1C[C@@H]2C[C@H]1CN2c1ccc(Nc2nccc(-c3cnc4c(c3)OC(C)(C)C(=O)N4)n2)cc1C#N [compound 53, 4-(2,2-dimethyl-3-oxo-3,4-dihydro-2H-pyrido[3,2-b][1,4]oxazin-7-yl)-N-(3-cyano-4-((1S,4S)-5-methyl-2,5-diazabicyclo[2.2.1]heptan-2-yl)phenyl)pyrimidin-2-amine]
GI50 [1]: < 1 µM

CN(C)c1ccc(-c2ccnc(Nc3ccc(N4C[C@@H]5C[C@H]4CN5C)nc3)n2)cn1 [compound 54, 4-(6-(dimethylamino)pyridin-3-yl)-N-(6-((1S,4S)-5-methyl-2,5-diazabicyclo[2.2.1]heptan-2-yl)pyridin-3-yl)pyrimidin-2-amine]
GI50 (inhibition of JAK2 activity, proliferation of Ba/F3 V617F cells, read-out: IC50 (the source's name)): 1 to 10 µM

Reference: US9624229B2, “Pyrimidine-2-amine compounds and their use as inhibitors of JAK kinases” (Rigel Pharmaceuticals, Inc., priority 2008, dated 2017)
